According to patent US20240327418A1, “MULTI-TARGET INHIBITOR TARGETING HDAC AND NAD SYNTHESIS AND USE OF MULTI-TARGET INHIBITOR” (OCEAN UNIVERSITY OF CHINA, priority 2021, published 2024):
Where two headings read alike, the source gives them in different places.

Columns and labels:
HDAC2 = HDAC2 (Homo sapiens (Human), UniProt Q92769); experiment: Inhibitory activity on HDAC2 (fluorescence enzyme assay); conditions: read-out: IC50 HDAC2; mean of three independent experiments
[1] = tested on: acute myelogenous leukemia cells MV4-11; experiment: GI50 and LC50 by NCI method, MV4-11; type: cell-based; conditions: Homo sapiens, 48 hours, Cell Titer-Blue
Procedure: (§1) The median growth inhibitory concentration (GI50) and median lethal concentration (LC50) were determined by NCI method. Leukemia cell strains MV4-11, HL60, PL21, KASUMI-1, MONO-MAC-1 and NB-4 were cultured in an Iscove's Modified Dulbecco Medium (IMDM) containing 10% fetal bovine serum, were inoculated into a 96-well cell culture plate at a density of 10,000 cells/100 μL and cultured overnight. 6 wells were selected as Tz wells, 0.125 mg/mL Cell Titer-Blue dye was added, and the cells were cultured for 4 hours and then the fluorescence intensity at […] (excitation wavelength/emission wavelength) was read. Compounds of different concentrations were added to the remaining wells, and a 100% control group was set. After 48 hours of cultivation, 0.125 mg/mL Cell Titer-Blue dye was added and the fluorescence intensity at […] was read after 4 hours. The fluorescence intensity of the dosing group was represented by Ti, the fluorescence intensity of the 100% control group was represented by C, and the fluorescence intensity before dosing was represented by Tz.
(§2) If Ti≥Tz, the formula [(Ti−Tz)/(C−Tz)]×100 was used.
(§3) If Ti<Tz, the formula [(Ti−Tz)/Tz]×100 was used.
(§4) The GI50 and LC50 values of some compounds on leukemia cell strains MV4-11, HL60, PL21, KASUMI-1, MONO-MAC-1 and NB-4 are shown in FIG. 1, Table 3, FIG. 2, and Table 4.

[2] = tested on: acute myelogenous leukemia cells HL60; experiment: GI50 and LC50 by NCI method, HL60; type: cell-based; conditions: for CC50 / GI50: Homo sapiens, HL-60, 48 hours, Cell Titer-Blue
Procedure: as §1, §2, §3, §4

HDAC3 = HDAC3 (Homo sapiens (Human), UniProt O15379); experiment: Inhibitory activity on HDAC3 (fluorescence enzyme assay); conditions: read-out: IC50 HDAC3; mean of three independent experiments
Sequence of HDAC3 (O15379 whole entry, species assumed): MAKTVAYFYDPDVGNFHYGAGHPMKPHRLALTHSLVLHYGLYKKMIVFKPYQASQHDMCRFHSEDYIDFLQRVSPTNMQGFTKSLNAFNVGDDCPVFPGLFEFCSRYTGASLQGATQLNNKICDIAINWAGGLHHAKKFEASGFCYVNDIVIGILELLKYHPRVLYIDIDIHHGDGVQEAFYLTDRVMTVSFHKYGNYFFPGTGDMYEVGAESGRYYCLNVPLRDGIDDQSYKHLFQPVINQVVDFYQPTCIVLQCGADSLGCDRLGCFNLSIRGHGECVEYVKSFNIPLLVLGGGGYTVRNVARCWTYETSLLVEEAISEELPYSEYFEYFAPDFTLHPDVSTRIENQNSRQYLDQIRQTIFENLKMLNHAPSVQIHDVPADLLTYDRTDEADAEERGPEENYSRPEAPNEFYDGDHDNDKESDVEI
Sequence of HDAC3 (Q9Y618 395-489 partner, species assumed): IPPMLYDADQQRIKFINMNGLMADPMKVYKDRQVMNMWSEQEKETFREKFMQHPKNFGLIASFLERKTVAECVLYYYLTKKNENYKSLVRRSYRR

HDAC1 = HDAC1 (Homo sapiens (Human), UniProt Q13547); experiment: Inhibitory activity on HDAC1 (fluorescence enzyme assay); conditions: read-out: IC50 HDAC1; mean of three independent experiments
Sequence of HDAC1 (Q13547 whole entry, species assumed): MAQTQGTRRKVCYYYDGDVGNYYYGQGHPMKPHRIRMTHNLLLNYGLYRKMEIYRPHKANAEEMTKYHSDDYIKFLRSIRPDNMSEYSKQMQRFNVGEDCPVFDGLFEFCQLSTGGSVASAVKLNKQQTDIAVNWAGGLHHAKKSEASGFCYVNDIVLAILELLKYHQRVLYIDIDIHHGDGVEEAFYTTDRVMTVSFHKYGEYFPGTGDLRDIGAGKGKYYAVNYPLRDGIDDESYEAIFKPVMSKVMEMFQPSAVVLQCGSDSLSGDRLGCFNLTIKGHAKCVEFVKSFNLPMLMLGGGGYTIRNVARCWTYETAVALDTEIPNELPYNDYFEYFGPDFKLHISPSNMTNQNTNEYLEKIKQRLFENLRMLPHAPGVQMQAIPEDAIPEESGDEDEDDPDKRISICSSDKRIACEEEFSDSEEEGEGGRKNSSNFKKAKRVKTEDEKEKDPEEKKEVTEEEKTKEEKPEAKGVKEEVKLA

[3] = po 50 mg/kg, literature (BMC 2007, 21, 184-189); cited from earlier work
MV4-11 tumor = experiment: In vivo anti-leukemia activity, MV4-11 tumor bearing model; conditions: MV4-11 tumor bearing nude mice; 4 mg/kg/d, day 23; panobinostat intraperitoneal
[4] = tested on: leukemia cell line MONO-MAC-1; experiment: GI50 and LC50 by NCI method, MONO-MAC-1; type: cell-based; conditions: 48 hours, Cell Titer-Blue
Procedure: as §1, §2, §3, §4

leukemia cell line PL21 = experiment: GI50 and LC50 by NCI method, PL21; type: cell-based; conditions: PL-21; 48 hours, Cell Titer-Blue
Procedure: as §1, §2, §3, §4

[5] = tested on: leukemia cell line KASUMI-1; experiment: GI50 and LC50 by NCI method, KASUMI-1; type: cell-based; conditions: Homo sapiens, 48 hours, Cell Titer-Blue
Procedure: as §1, §2, §3, §4

leukemia cell line NB-4 = experiment: GI50 and LC50 by NCI method, NB-4; type: cell-based; conditions: 48 hours, Cell Titer-Blue; for GI50: read-out: NB4 GI50; for LC50 (median lethal concentration): read-out: NB4 LC50
Procedure: as §1, §2, §3, §4

[6] = Pharmacokinetic properties in mice; type: in vivo; conditions: for half-life: read-out: t½ (converted); for F: po 20 mg/kg vs iv 5 mg/kg
NAMPT = NAMPT (Homo sapiens (Human), UniProt P43490); experiment: Inhibitory activity on NAMPT; type: biochemical; conditions: for IC50: mean of three independent experiments
Sequence of NAMPT (P43490 whole entry, species assumed): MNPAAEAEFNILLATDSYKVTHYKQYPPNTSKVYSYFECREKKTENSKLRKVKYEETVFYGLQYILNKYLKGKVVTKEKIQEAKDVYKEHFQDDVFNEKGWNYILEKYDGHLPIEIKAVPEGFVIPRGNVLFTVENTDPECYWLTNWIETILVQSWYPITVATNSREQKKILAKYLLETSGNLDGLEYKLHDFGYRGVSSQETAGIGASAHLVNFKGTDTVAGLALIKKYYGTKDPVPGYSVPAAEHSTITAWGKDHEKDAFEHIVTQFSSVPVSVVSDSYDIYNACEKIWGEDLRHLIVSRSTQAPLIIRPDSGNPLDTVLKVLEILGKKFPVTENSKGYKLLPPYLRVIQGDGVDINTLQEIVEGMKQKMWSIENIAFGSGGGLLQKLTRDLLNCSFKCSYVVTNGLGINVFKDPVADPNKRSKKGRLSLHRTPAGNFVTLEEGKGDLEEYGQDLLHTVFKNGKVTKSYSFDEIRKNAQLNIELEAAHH

cell death = experiment: NMN reversal of cell death caused by compounds (FIG. 4); type: cell-based; conditions: NMN is nicotinamide mononucleotide
HCT116 tumor = experiment: In vivo anti-colon cancer activity, HCT116 tumor bearing model; set-up: species or system nude mice
[7] = mouse, plasma, po 20 mg/kg single dose
[8] = mouse, plasma, po 20 mg/kg single dose, read-out: Cmax
[9] = HCT116 tumor bearing nude mice, LEE17 orally 8 mg/kg/d

Sequence of HDAC2 (Q92769 whole entry, species assumed): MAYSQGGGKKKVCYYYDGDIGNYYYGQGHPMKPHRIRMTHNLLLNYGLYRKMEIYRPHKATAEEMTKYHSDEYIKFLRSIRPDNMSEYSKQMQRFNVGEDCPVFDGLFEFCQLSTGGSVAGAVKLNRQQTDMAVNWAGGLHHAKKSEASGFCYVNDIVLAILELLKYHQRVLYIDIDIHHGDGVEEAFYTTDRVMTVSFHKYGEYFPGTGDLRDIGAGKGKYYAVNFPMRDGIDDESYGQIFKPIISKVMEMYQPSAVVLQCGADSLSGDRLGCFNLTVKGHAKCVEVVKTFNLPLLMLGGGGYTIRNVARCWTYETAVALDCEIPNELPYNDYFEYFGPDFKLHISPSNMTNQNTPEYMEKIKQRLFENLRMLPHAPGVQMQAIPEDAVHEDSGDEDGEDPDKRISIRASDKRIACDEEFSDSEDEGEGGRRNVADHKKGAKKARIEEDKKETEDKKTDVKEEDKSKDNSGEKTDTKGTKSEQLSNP

## CCCNNC(=O)c1ccc(CNC(=O)/C=C/c2ccncc2)cc1 [LEE14, (E)-N-(4-(2-propylhydrazino-1-carbonyl)benzyl)-3-(pyridin-4-yl)acrylamide]
HDAC2
  IC50: 88.5 nM
[1]
  GI50: 14.3 nM
  LC50 (median lethal concentration): 83.6 nM
[2]
  LC50 values in p53-null cell strain HL60 (in words): nanomolar level
  CC50: 6060 nM
  GI50: 63.1 nM
HDAC3
  IC50: 2.74 nM
HDAC1
  IC50: 12.7 nM

## CCCNNC(=O)c1ccc(CNC(=O)c2cc3cnccc3s2)cc1 [LEE19, N-(4-(2-propylhydrazin-1-carbonyl)benzyl)thiopheno[3,2-c]pyridin-2-carboxamide]
HDAC2
  IC50: 60 nM
[1]
  GI50: 54 nM
  LC50 (median lethal concentration): 98.5 nM
[2]
  CC50: > 10000 nM
  GI50: 77.3 nM
HDAC3
  IC50: 1.2 nM
HDAC1
  IC50: 10.1 nM

## Cc1[nH]c2ccccc2c1CCNCc1ccc(/C=C/C(=O)NO)cc1 [Panobinostat]
[3]
  AUClast: 126 ng·h/mL
  Cmax: 116 ng/mL
  F: 4.62%
  t½: 174 min
MV4-11 tumor
  Relative tumor proliferation rate (T/C %): 72.9%
  Tumor inhibitory rate (TGI %): 18.3%

## CCCNNC(=O)c1ccc(CNC(=O)c2cc3ccccc3o2)cc1 [LEE16, N-(4-(2-propylhydrazino-1-carbonyl)benzyl)benzofuran-2-carboxyamide]
HDAC2
  IC50: 18.5 nM
[4]
  CC50: > 10000 nM
  GI50: 25.3 nM
[1]
  GI50: 30 nM
  LC50 (median lethal concentration): 57.8 nM
Leukemia cell line PL21
  GI50: 34.3 nM
  LC50 (median lethal concentration): > 10000 nM
[5]
  GI50: 15.3 nM
  LC50: 5360 nM
Leukemia cell line NB-4
  GI50: 42.3 nM
  LC50 (median lethal concentration): > 10000 nM
[2]
  CC50: > 10000 nM
  GI50: 75.2 nM
[6]; [7]
  AUC(0-t): 129000 ng·h/mL
  Tmax: 30 min
  half-life: 362 min
[6]; [8]
  Cmax: 34400 ng/mL
[6]
  F: 111%
HDAC3
  IC50: 0.435 nM
MV4-11 tumor
  Relative tumor proliferation rate (T/C %): 25.4%
  Tumor inhibitory rate (TGI %): 78.4%
HDAC1
  IC50: 3.01 nM

## CCCNNC(=O)/C=C/c1ccc(CNCCc2c(C)[nH]c3ccccc23)cc1 [Comparative example 2 LP97/13a, reference compound]
[6]; [7]
  AUC(0-t): 242 ng·h/mL
  Tmax: 30 min
[6]; po 20 mg/kg single dose
  Cmax: 45.1 ng/mL
[6]
  F: 19.8%
NAMPT
  IC50: > 20000 nM

## CCCNNC(=O)c1ccc(CNC(=O)c2cc3cnccc3[nH]2)cc1 [LEE18, N-(4-(2-propylhydrazin-1-carbonyl)benzyl)-1H-pyrrolo[3,2-c]pyridin-2-carboxamide]
HDAC2
  IC50: 37.8 nM
[4]
  CC50: 8680 nM
  GI50: 65.7 nM
[1]
  GI50: 23.6 nM
  LC50 (median lethal concentration): 58.1 nM
Leukemia cell line PL21
  GI50: 110 nM
  LC50 (median lethal concentration): 2720 nM
[5]
  GI50: 21.4 nM
  LC50: 503 nM
Leukemia cell line NB-4
  GI50: 16.5 nM
  LC50 (median lethal concentration): 1560 nM
[2]
  LC50 values in p53-null cell strain HL60 (in words): nanomolar level
  CC50: 649 nM
  GI50: 51.2 nM
HDAC3
  IC50: 0.71 nM
Cell death
  effect of NMN on cell death caused by the compound: reversal effect

## COC(=O)c1ccc(CNC(=O)/C=C/c2cccnc2)cc1 [LEE43, methyl (E)-4-((3-(pyridine-3-yl)acrylamido)methyl) benzoate]
NAMPT
  inhibitory activity against NAMPT (in words): micromolar level
  IC50: 4680 nM

## CCCNNC(=O)c1ccc(CNC(=O)/C=C/c2cccnc2)cc1 [LEE12, (E)-N-(4-(2-propylhydrazino-1-carbonyl)benzyl)-3-(pyridin-3-yl) acrylamide]
HDAC2
  IC50: 141 nM
[4]
  CC50: 9030 nM
  GI50: 73.7 nM
[1]
  GI50: 38.3 nM
  LC50 (median lethal concentration): 218 nM
Leukemia cell line PL21
  GI50: 259 nM
  LC50 (median lethal concentration): 3820 nM
[5]
  GI50: 13.5 nM
  LC50: 285 nM
Leukemia cell line NB-4
  GI50: 22.8 nM
  LC50 (median lethal concentration): 2300 nM
[2]
  LC50 values in p53-null cell strain HL60 (in words): nanomolar level
  CC50: 591 nM
  GI50: 42.1 nM
HDAC3
  IC50: 3.12 nM
NAMPT
  inhibitory activity against NAMPT (in words): micromolar level
  IC50: 6570 nM
HDAC1
  IC50: 25.1 nM
Cell death
  effect of NMN on cell death caused by the compound: reversal effect

## CCCNNC(=O)c1ccc(CNC(=O)c2cc3cnccc3o2)cc1 [LEE20, N-(4-(2-propylhydrazino-1-carbonyl)benzyl)furan[3,2-c]pyridine-2-carboxyamide]
HDAC2
  IC50: 38.4 nM
[1]
  GI50: 50.4 nM
  LC50 (median lethal concentration): 109 nM
[2]
  CC50: > 10000 nM
HDAC3
  IC50: 0.52 nM
HDAC1
  IC50: 10.3 nM

## CCCNNC(=O)c1ccc(CNC(=O)/C=C/c2ccccc2)cc1 [Comparative example 1 LP411/3b, reference compound]
HDAC2
  IC50: 95.5 nM
[4]
  CC50: > 10000 nM
  GI50: 16.3 nM
[1]
  GI50: 66 nM
Leukemia cell line PL21
  GI50: 523 nM
[5]
  GI50: 17.8 nM
Leukemia cell line NB-4
  GI50: 19.5 nM
[2]
  CC50: > 10000 nM
  GI50: 121 nM
NAMPT
  IC50: > 20000 nM
HDAC1
  IC50: 11.8 nM

## COC(=O)c1ccc(CNC(=O)c2cc3cnccc3[nH]2)cc1 [LEE44, methyl 4-((1H-pyrrolo[3,2-c]pyridine-2-carbonylamide)methyl) benzoate]
NAMPT
  inhibitory activity against NAMPT (in words): micromolar level
  IC50: 6710 nM

## CCCNNC(=O)c1ccc(CNC(=O)c2cc3ccccc3s2)cc1 [LEE17, N-(4-(2-propylhydrazino-1-carbonyl)benzyl)benzo[b]thiophene-2-carboxyamide]
HDAC2
  IC50: 16.9 nM
[4]
  CC50: > 10000 nM
  GI50: 33.2 nM
[1]
  GI50: 20.3 nM
  LC50 (median lethal concentration): 57.1 nM
Leukemia cell line PL21
  GI50: 74.3 nM
  LC50 (median lethal concentration): > 10000 nM
[5]
  GI50: 25.3 nM
  LC50: 7320 nM
HCT116 tumor; 8 mg/kg/d
  change in the weight of the nude mice at the end of the experiment (in words): no significant change
HCT116 tumor; [9]
  Relative tumor proliferation rate (T/C %): 14.8%
  Tumor inhibitory rate (TGI %): 85.5%
  Weight of nude mice at the end of the experiment: 19.04 ± 1.31 g
Leukemia cell line NB-4
  GI50: 51.2 nM
  LC50 (median lethal concentration): > 10000 nM
[2]
  CC50: > 10000 nM
  GI50: 58.7 nM
[6]; [7]
  AUC(0-t): 27600 ng·h/mL
  Tmax: 15 min
  half-life: 268 min
[6]; [8]
  Cmax: 9460 ng/mL
[6]
  F: 64.6%
HDAC3
  IC50: 0.551 nM
HDAC1
  IC50: 3.79 nM

## CCCNNC(=O)c1ccc(CNC(=O)c2cc3ccccc3[nH]2)cc1 [LEE15, N-(4-(2-propylhydrazino-1-carbonyl)benzyl)-1H-indole-2-carboxyamide]
HDAC2
  IC50: 15.1 nM
[4]
  CC50: > 10000 nM
  GI50: 17.9 nM
[1]
  GI50: 37.2 nM
  LC50 (median lethal concentration): 58.1 nM
Leukemia cell line PL21
  GI50: 65.5 nM
  LC50 (median lethal concentration): > 10000 nM
[5]
  GI50: 17.5 nM
  LC50: 8410 nM
Leukemia cell line NB-4
  GI50: 31.9 nM
  LC50 (median lethal concentration): > 10000 nM
[2]
  CC50: > 10000 nM
  GI50: 69.5 nM
[6]; [7]
  AUC(0-t): 128000 ng·h/mL
  Tmax: 15 min
[6]; po 20 mg/kg single dose
  Cmax: 38800 ng/mL
  t½: 155 min
[6]
  F: 112%
HDAC3
  IC50: 0.383 nM
MV4-11 tumor
  Relative tumor proliferation rate (T/C %): 22.4%
  Tumor inhibitory rate (TGI %): 81.3%
HDAC1
  IC50: 3.52 nM

## CCCNNC(=O)c1ccc(CNC(=O)c2cc3ccncc3[nH]2)cc1 [LEE21, N-(4-(2-propylhydrazino-1-carbonyl)benzyl)-1H-pyrrolo[2,3-c]pyridine-2-carboxamide]
HDAC2
  IC50: 51.5 nM
[1]
  GI50: 25.4 nM
  LC50 (median lethal concentration): 58 nM
[2]
  CC50: > 10000 nM
  GI50: 81.5 nM
HDAC3
  IC50: 2.42 nM
HDAC1
  IC50: 8.17 nM
